{"source": "patent US20150368203A1", "about": "“PHARMACEUTICAL FORMULATIONS CONTAINING IPIDACRINE AND THEIR USE FOR THE TREATMENT OF DISORDERS OF POTENCY AND DISORDERS OF OTHER FORMS OF SEXUAL ACTIVITY” (Limited Liability Company \"KONSORTSIUM-PIK\", priority 2012, published 2015)", "key": {"[1]": {"system": "hemigonadectomized rats", "assay": "Sexual activity of hemigonadectomized rats (hypogonadal state model)", "type": "in vivo, rat", "from_the_text": "Evaluation of the effects of ipidacrine pharmaceutical formulation in rats with the reduced sexual activity caused by hemigonadectomy. The hemigonadectomy is similar to the pathological processes observed in the clinical picture and associated with the decrease in hormone production by the sex glands. The model of hypogonadal state in rats induced by the hemigonadectomy corresponds to the pathological processes observed in the clinical picture and associated with the decreased hormone production of the sex glands.\nThe study of the ipidacrine pharmacological activity was conducted in albino male rats. The following six groups of animals were formed: 1—intact, 2—treated with sildenafil, 3—galantamine, 4—ipidacrine, 5—gonadectomized, 6—control.\n30 days before the start of the main study, the experiment was performed (3 times a week for 2 weeks), namely introduction of a receptive female to the male rat. The number of ejaculations was recorded. Those animals whose level of sexual activity was characterized by stable performance of 1-2 ejaculations during the period of the test were selected.\nThe selected male rats underwent the hemigonadectomy (at the right) performed under ether anesthesia. Then, during 7 and 14 days prior to the course administration of the drugs, daily testing of sexual activity of the hemigonadectomized animals was carried out. The latency period and the number of mounts, intromissions and ejaculations in different groups of the animals were considered."}, "[2]": {"system": "hypoactive male rats with spontaneously reduced sexual function", "assay": "Sexual activity of initially hypoactive male rats with spontaneously reduced sexual function", "type": "in vivo, rat", "from_the_text": "This model is associated with the clinical conditions of anorgasmia or delayed ejaculation in humans. According to the results of the five-fold testing of the intact animals, the groups of hypoactive male rats were formed. The criterion for selection was average number of ejaculations of less than 0.5 according to the results of the five-fold testing.\nTo assess the effect of ipidacrine on sexual function of rats with the reduced sexual activity, the groups of the animals with initially low manifestations of copulatory and ejaculatory components of behavior were formed. This model reflects the clinical conditions of anorgasmia and delayed ejaculation. The effect of the drug on the integral indicator of the sexual function (number of ejaculations) at a dose of 0.85 to 5.1 mg/kg when administered daily is shown in FIG. 3"}, "[3]": {"system": "male rats exposed to chronic stress (electrical current)", "assay": "Sexual activity of male rats in the model of chronic stress caused by electrical current exposure", "type": "in vivo, rat", "protocol": "The most appropriate model (in terms of the ease of implementation) is the model of psychogenic sexual dysfunction caused by exposure to physical factors (electrical current) in rats.\nThe pre-experiment with the animals was performed similar to that described in Example 2.\nThe two groups of the animals similar in the sexual activity level were formed: control (administration of distilled water), pharmaceutical formulation (on ipidacrine basis at a dose of 1.7 mg/kg). The animals of the control and experimental groups were daily exposed to current with a voltage of 30V for 30 min once a minute with an impulse with duration of 1 sec. The drug was administered 30 minutes before the stress, the testing was performed 60 min after the stress."}, "[4]": {"system": "patients with dementia", "conditions": "patients in the treatment of Alzheimer's disease; cited from earlier work"}, "[5]": {"system": "ovariectomized, hypoestrogenic rats", "conditions": "introduction into the lateral ventricle in the brain; cited from earlier work"}}, "data": [{"smiles": "Nc1c2c(nc3c1CCC3)CCCC2", "note": "[ipidacrine, Ipidacrine]", "values": [{"measurement": "level of the sexual activity (fluctuations due to external stressor effects)", "setting": "[1]; 1.7 mg/kg once daily for 7 days, hemigonadectomized rats", "value": "eliminates fluctuations in the level of the sexual activity"}, {"measurement": "time of maximum manifestation of the increase in sexual activity", "setting": "[1]; 5.1 mg/kg, 2 times a day for 14 days", "value": "3 to 5", "unit": "days"}, {"measurement": "time of maximum manifestation of the increase in sexual activity", "setting": "[1]; 0.85 to 1.7 mg/kg, 2 times a day for 14 days", "value": "11 to 14", "unit": "days"}, {"measurement": "sexual activity of the animals", "setting": "[1]; 0.85 to 5.1 mg/kg, 2 times a day for 14 days, hemigonadectomized rats", "value": "dose-dependent increase in the sexual activity"}, {"measurement": "average number of ejaculations in the group", "setting": "[2]; 0.85 mg/kg daily", "value": "0.6-0.8"}, {"measurement": "rate of occurrence of ejaculations", "setting": "[2]; 0.85 mg/kg daily", "value": 80, "unit": "%"}, {"measurement": "latency period of mounts and intromissions", "setting": "[2]; 0.85 mg/kg daily, 7th to 14th day, versus background, trend level, similar changes in control", "value": "reduction of the latency period of mounts and intromissions"}, {"measurement": "time to renewal of sexual activity after the first ejaculation (on the average)", "setting": "[2]; 0.85 mg/kg daily, some animals", "value": "4 to 6", "unit": "min"}, {"measurement": "sexual activity", "setting": "[2]; 0.85 mg/kg daily, starting with the 2nd week", "value": "increase in the sexual activity"}, {"measurement": "number of animals able to ejaculate", "setting": "[2]; 1.7 mg/kg", "value": "up to 80%"}, {"measurement": "effect on the sexual function", "setting": "[2]; 1.7 mg/kg, 14 days", "value": "activating effect on the sexual function throughout the whole observation period"}, {"measurement": "reduction in the latency time of mounts and intromissions", "setting": "[2]; 1.7 mg/kg, after the first administration", "value": "2 to 4", "unit": "fold"}, {"measurement": "ejaculatory component", "setting": "[2]; 1.7 mg/kg, throughout the course of administration", "value": "increase of the ejaculatory component in comparison with the control"}, {"measurement": "efficacy in spontaneous sexual hypoactivity", "setting": "[2]; 5.1 mg/kg", "value": "effective only when administered for 5 days"}, {"measurement": "manifestation of the sexual activity on subsequent administration", "setting": "[2]; 5.1 mg/kg, after the first 5 days", "value": "negative effect on the manifestation of the sexual activity"}, {"measurement": "sexual activity (central motivational and ejaculatory components)", "setting": "[2]; 5.1 mg/kg, first 5 days", "value": "increased the sexual activity in the animals during the first 5 days of observation"}, {"measurement": "values of indicators of sexual activity", "setting": "[2]; 5.1 mg/kg, in 10, 14 days of the experiment", "value": "comparable to the control"}, {"measurement": "latency period of mounts", "setting": "[2]; 5.1 mg/kg, in 3 days of observation, reduced from 33.0±5.35, p<0.05", "value": "9.3 ± 1.93", "unit": "s"}, {"measurement": "latency period of intromissions", "setting": "[2]; 5.1 mg/kg, in 3 days of observation, reduced from 59.8 ±11.34, p<0.05", "value": "10.5 ±1.76"}, {"measurement": "formation of sexual dysfunction", "setting": "[3]; 1.7 mg/kg once a day prior to the stress", "value": "slower formation of sexual dysfunction"}, {"measurement": "parameters of activity in the initial period", "setting": "[3]; 1.7 mg/kg, 1 to 3 days, versus group nonsusceptible to stress", "value": "comparable to the parameters in the group nonsusceptible to the stress"}, {"measurement": "frequency of ejaculations", "setting": "[3]; 1.7 mg/kg, 3rd to 10th day of the experiment", "value": "60-100%"}, {"measurement": "rate of renewal of activity after the first ejaculation", "setting": "[3]; 1.7 mg/kg, 3rd to 10th day, versus stressed animals without treatment", "value": "higher rate of renewal of activity after the first ejaculation"}, {"measurement": "latency period of intromissions (7th day) and of intromissions and mounts (10th day) versus group without treatment", "setting": "[3]; 1.7 mg/kg, 7th and 10th day", "value": "Significant differences from the group without treatment"}, {"measurement": "number of ejaculations", "setting": "[3]; 1.7 mg/kg, 10th and 14th day of the 14 day exposure to stress", "value": "0.4-0.6"}, {"measurement": "latency period of mounts and intromissions compared to animals nonsusceptible to stress", "setting": "[3]; 1.7 mg/kg, starting from the 5th day", "value": "significant increase in the latency period of mounts and intromissions"}]}, {"smiles": "COc1cc2c(cc1OC)C(=O)C(CC1CCN(Cc3ccccc3)CC1)C2", "note": "(stereo not shown) [donepezil]", "values": [{"measurement": "sexual behavior (side effect)", "setting": "[4]", "value": "increase in the sexual behavior"}]}, {"smiles": "CNC(=O)Oc1ccc2c(c1)[C@]1(C)CCN(C)[C@@H]1N2C", "note": "[eserine]", "values": [{"measurement": "lordosis", "setting": "[5]", "value": "increases the lordosis"}]}]}
